Like-named read-outs stand apart in the source and are kept apart here.
Assays:
[1] = tested on: human peripheral blood mononuclear cells (PBMCs); assay: Human PBMC assay: IL-8 production stimulated with CL075 (ELISA); assay type: cell-based; conditions: 3 to 1000 nM antagonist 2 h, then CL075 100 ng/mL (400 nM) overnight, FIG. 1, one donor
Protocol: PBMCs contain a mixture of cells including monocytes and myeloid dendritic cells (mDCs) that express TLR8. […] The ability of TLR8 antagonists to inhibit […] production in human PBMCs was evaluated. […] Data shown in FIG. 1 are a representative experiment from one donor evaluated in duplicate culture wells. Increasing concentrations (from 3 to 1000 nM) of Compounds 3348, 2987, 3261, 3387, and 3448 (labeled as VTX-3348, VTX-2987, VTX-3261, VTX-3387, VTX-3448 in FIG. 1) were added to human PBMCs (50,000 cells/well in RPMI) and incubated for 2 hours in a 37° C. humidified CO2 incubator. […] At the end of the incubation, cells were centrifuged and cell culture supernatants were analyzed for IL-8 by ELISA (eBiosciene kit) per the manufacturer's instructions. The absorbance (OD 450 nm) representative of IL-8 levels is shown on the y-axis of FIG. 1.
The experiment shown in FIG. 1 was repeated in multiple donors and with additional TLR8 antagonist molecules (see FIG. 2). […] Percent inhibition is shown on the y-axis and concentrations of TLR8 antagonists (3-1000 nM) are shown on the x-axis in FIG. 2.

[2] = biological target: T1, hTLR8 (Homo sapiens, UniProt Q9NR97); assay: HEK-293 hTLR8 transfectant NF-κB SEAP reporter antagonist assay; assay type: cell-based
T1 construct: host or cells: HEK293 cells stably transfected with hTLR8
T1 sequence (Q9NR97 27-1041): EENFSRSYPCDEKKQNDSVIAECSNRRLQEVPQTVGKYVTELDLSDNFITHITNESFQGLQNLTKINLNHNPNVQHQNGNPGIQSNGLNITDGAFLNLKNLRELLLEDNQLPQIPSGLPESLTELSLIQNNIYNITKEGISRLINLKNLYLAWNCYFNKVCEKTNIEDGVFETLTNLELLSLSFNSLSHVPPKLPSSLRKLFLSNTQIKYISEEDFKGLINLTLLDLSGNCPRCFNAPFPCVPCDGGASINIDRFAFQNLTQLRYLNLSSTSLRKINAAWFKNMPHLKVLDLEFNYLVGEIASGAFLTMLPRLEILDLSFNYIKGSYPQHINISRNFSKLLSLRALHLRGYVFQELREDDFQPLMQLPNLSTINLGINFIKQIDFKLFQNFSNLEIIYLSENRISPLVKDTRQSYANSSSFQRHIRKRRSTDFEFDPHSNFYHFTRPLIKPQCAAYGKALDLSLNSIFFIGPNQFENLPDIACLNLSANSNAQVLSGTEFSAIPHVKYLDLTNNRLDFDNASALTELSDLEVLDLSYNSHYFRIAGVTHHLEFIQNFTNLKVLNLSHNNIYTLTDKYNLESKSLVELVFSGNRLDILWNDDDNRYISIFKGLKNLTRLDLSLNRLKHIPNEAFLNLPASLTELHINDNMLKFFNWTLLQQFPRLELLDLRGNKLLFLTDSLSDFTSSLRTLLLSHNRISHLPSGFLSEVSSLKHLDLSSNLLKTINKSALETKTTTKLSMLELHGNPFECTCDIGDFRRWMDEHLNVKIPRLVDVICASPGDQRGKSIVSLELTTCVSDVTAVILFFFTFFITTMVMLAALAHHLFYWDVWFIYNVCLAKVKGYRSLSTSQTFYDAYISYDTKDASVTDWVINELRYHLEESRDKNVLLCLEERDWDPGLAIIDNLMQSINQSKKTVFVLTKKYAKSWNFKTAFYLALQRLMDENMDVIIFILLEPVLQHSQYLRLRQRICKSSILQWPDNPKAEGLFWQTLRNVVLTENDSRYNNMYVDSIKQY
Protocol: The HEK-293 hTLR transfectant assay employs HEK293 cells stably transfected with various hTLRs and transiently co-transfected with a plasmid containing an NF-κB driven secreted embryonic alkaline phosphate (SEAP) reporter gene. Stimulation of TLRs activates their downstream signaling pathways and induces nuclear translocation of the transcription factor NF-κB. Reporter gene activity is then measured using a spectrophotometric assay.
For the TLR8 antagonist assays, cells are transiently transfected with the reporter gene on Day 1 per the supplier's instructions. Antagonist compounds are added to the cultures on Day 2 followed by addition of a TLR8 agonist approximately 2 hours later. Cultures are incubated overnight and SEAP activity is measured on Day 3.
In a typical assay, 50,000 HEK239 hTLR8 cells are seeded per culture well and transiently transfected with the SEAP reporter gene. Antagonists are added to cultures in culture medium and […] DMSO over a concentration range of 0.1 nanomolar to 10 micromolar. TLR8 agonists are added to cultures 2 hours later at a fixed concentration (e.g., 1 micromolar or 10 micromolar of Compound A) and cultures are then incubated for 16-24 hrs at 37° C. in a humidified CO incubator. Antagonists are also evaluated for activity in the absence of agonist.
TLR8 antagonist activity at 25 μM is presented in Table 2, where + denotes a % inhibition of 20-39, ++ denotes a % inhibition of 40-59, +++ denotes a % inhibition of 60-79 and ++++ denotes a % inhibition of 80-99. In some cases, antagonist activity was assessed at lower concentrations, for example, at 8.3, 2.8, or less than 1 μM.
TLR8 antagonist activity was measured in a hTLR8 assay format, measuring IC50 values. Compounds were incubated with hTLR8 reporter cells for two hours, then 1 μM Compound A was added to induce TLR8 overnight. IC50 were then calculated.

[3] = IC50, nM, vs. VTX-378 1 μM, agonist VTX-378 at 1 μM

Row | Structure (SMILES) | inhibition of IL-8 production [1] | IC50 [2, 3] | IC50 ([2]; IC50, nM, vs. VTX-378 10 μM, agonist VTX-378 at 10 μM) | IC50 ([2]; IC50, nM, vs. 3M002 10 μM, agonist 3M002 at 10 μM) | IC50 ([2]; agonist VTX-378 at 0.5 μM, read-out: IC50, nM, vs. VTX-378 0.5 μM)
1 | CCCN(CCC)C(=O)C1=Cc2cc(-c3ccc(C(=O)N4CCCC4)cc3)ccc2N=C(N)C1 [Compound 2987] | reduced in a dose dependent fashion | < 1000 nM | 1000 to 10000 nM |  | 
2 | CCOC(=O)C1=Cc2cc(-c3ccc(C(=O)N4CCCC4)cc3)ccc2N=C(N)C1(C)C [Compound 3348] | reduced in a dose dependent fashion | < 1000 nM |  | < 1000 nM | < 1000 nM
